In patent publication US20210395210A1, “INHIBITION OF BACTERIAL CHAPERONIN SYSTEMS” (THE TRUSTEES OF INDIANA UNIVERSITY, priority 2018, published 2021):
Like-named read-outs stand apart in the source and are kept apart here.

Tests used:
[1] = system: Methicillin resistant S. aureus (MRSA) (ATCC BAA-44); assay: Bacterial proliferation assay, MRSA; assay type: cell-based, Staphylococcus aureus; conditions: Staphylococcus aureus
Text: (§1) Bacterial Strains: Enterococcus faecium—(Orla-Jensen) Schleifer and Kilpper-Balz strain NCTC 7171 (ATCC 19434); Drug sensitive Staphylococcus aureus—Rosenbranch strain Seattle 1945 (ATCC 25923); Methicillin resistant S. aureus (MRSA)—Rosenbach strain HPV107 (ATCC BAA-44); Klebsiella Pneumonia—(Schroeter) Trevisan strain NCTC 9633 (ATCC 13883); Acinetobacter baumannii—Bouvet and Grimont strain 2208 (ATCC 19606); Pseudomonas aeruginosa—(Schroeter) Migula strain NCTC 10332 (ATCC 10145); Enterobacter cloacae—E. cloacae, subsp. cloacae (Jordan) Hormaeche and Edwards strain CDC 442-68 (ATCC 13047).
(§2) Growth Media: All bacteria were grown in Brain Heart Infusion (BHI) broth/agar (Becton, Dickinson and Company). All liquid cultures were grown in BHI media supplemented with 25 mg/L Ca^2+ and 12.5 mg/L Mg^2+ to mimic free physiological concentrations of these cations. A 10 mg/mL Ca^2+ stock solution was prepared by dissolving 3.68 g of CaCl2.2H2O in 100 mL of deionized water, and a 10 mg/mL Mg^2+ stock solution was prepared by dissolving 8.36 g of MgCl2.6H2O in 100 mL deionized water. Both stock solutions were filter-sterilized using 0.2 μm pore size cellulose-acetate filters. 2.5 mL of the sterile 10 mg/mL Ca^2+ stock and 1.25 mL of the sterile 10 mg/mL Mg^2+ stock solutions were added per 1 L of autoclaved BHI medium to obtain 25 mg/L Ca^2+ and 12.5 mg/L Mg^2+ ions, respectively.
(§3) General Assay Protocol: Stock bacterial cultures were streaked onto BHI agar plates and grown overnight at 37° C. Fresh aliquots of broth were inoculated with single bacterial colonies and the cultures were grown overnight at 37° C. with shaking (240 rpm) in cation adjusted BHI media. The following morning, the overnight cultures were sub-cultured (1:5 dilution) into fresh aliquots of cation adjusted BHI media and grown at 37° C. for 1-2 hours with shaking. After 2 h, cultures were diluted into fresh media to achieve final OD600 readings of 0.017. Aliquots of these diluted cultures (30 μL) were added to clear, flat-bottom, 384-well polystyrene plates that were stamped with 0.5 μL of test compounds in 20 μL media. […] Plates were sealed with “Breathe Easy” oxygen permeable membranes (Diversified Biotech) and left to incubate at 37° C. without shaking (stagnant assay). OD600 nm readings were taken at either 6-8 h (S. aureus, MRSA, K. pneumonia, E. cloacae, and P. aeruginosa) or 24 h (E. faecium and A. baumannii). A second set of baseline control plates were prepared analogously, but without any bacteria added, to correct for possible compound absorbance and/or precipitation. Plates were then read at 600 nm using a Molecular Devices SpectraMax Plus384 microplate reader. […] Results presented represent the averages of EC50 values obtained from at quadriplicate (duplicate of duplicate) replicates.

[2] = system: Acinetobacter baumannii (ATCC 19606); assay: Bacterial proliferation assay, A. baumannii; assay type: cell-based
Text: as §1, §2, §3

[3] = in vitro; conditions: human
Method: (§4) HEK 293 cells were maintained in MEM medium (Corning Cellgro, 10-009 CV) supplemented with 10% FBS (Sigma, F2242). […] Cells at 80% confluence were harvested and diluted in growth medium, then 45 μL of the THLE-3 cells (1,500 cells/well) or HEK 293 cells (1,500 cells/well) were dispensed per well, and plates were sealed with “Breathe Easy” oxygen permeable membranes (Diversified Biotech) and incubated at 37° C., 5% CO2, for 24 h.

[4] = biological target: T1, native MDH (Sus scrofa, UniProt P00346); assay: Counter-screen for inhibition of native MDH enzymatic activity; assay type: biochemical, pig
T1 construct: soluble pig heart MDH from Roche, product #10127248001; purchased Roche 10127248001; host or cells: pig heart
T1 sequence (P00346 25-338): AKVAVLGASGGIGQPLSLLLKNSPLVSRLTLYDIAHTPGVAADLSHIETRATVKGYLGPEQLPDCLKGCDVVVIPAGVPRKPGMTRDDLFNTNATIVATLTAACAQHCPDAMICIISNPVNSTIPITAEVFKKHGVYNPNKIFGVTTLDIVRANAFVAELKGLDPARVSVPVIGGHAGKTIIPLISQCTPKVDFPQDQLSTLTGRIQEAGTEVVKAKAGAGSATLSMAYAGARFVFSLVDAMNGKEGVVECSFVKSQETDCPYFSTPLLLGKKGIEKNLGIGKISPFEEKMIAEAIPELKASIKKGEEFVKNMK
How it was run: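 Compounds were added only after GroEL/ES-mediated MDH refolding (45 min, 37 °C) had been EDTA-quenched, so only refolded MDH activity is probed.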

[5] = in vitro; conditions: human; remark: listed apart in the source
Method: as §4

[6] = system: Enterobacter cloacae (ATCC 13047); assay: Bacterial proliferation assay, E. cloacae; assay type: cell-based
Text: as §1, §2, §3

[7] = MRSA, log of EC50 (μM scale), with standard deviation, read-out: log(EC50) Bacterial Proliferation Assay S. aureus Resistant (converted)
[8] = ATCC19606, OD600 at 24 h, read-out: Bacterial Proliferation EC50 A. baumannii
[9] = ATCC19606, log of EC50 (μM scale), with standard deviation, read-out: log(EC50) Bacterial Proliferation Assay A. baumannii (converted)
[10] = log of IC50 (μM scale), with standard deviation, read-out: log(IC50) Native MDH Reporter (converted)
[11] = read-out: Biochemical Assay IC50 Native MDH Reporter
[12] = ATCC13047, OD600 at 6-8 h, read-out: Bacterial Proliferation EC50 E. cloacae
[13] = ATCC13047, log of EC50 (μM scale), with standard deviation, read-out: log(EC50) Bacterial Proliferation Assay E. cloacae (converted)
[14] = read-out: Bacterial Proliferation EC50 S. aureus Resistant
[15] = read-out: log(EC50) Bacterial Proliferation Assay S. aureus Resistant (converted)
[16] = ATCC19606, 24 h, read-out: Bacterial Proliferation EC50 A. baumannii
[17] = ATCC19606, read-out: log(EC50) Bacterial Proliferation Assay A. baumannii (converted)
[18] = ATCC13047, read-out: Bacterial Proliferation EC50 E. cloacae
[19] = ATCC13047, read-out: log(EC50) Bacterial Proliferation Assay E. cloacae (converted)
[20] = MRSA, OD600 at 6-8 h, read-out: Bacterial Proliferation EC50 S. aureus Resistant

| Structure (SMILES) | EC50 [1, 7] | EC50 [2, 8] | EC50 [2, 9] | CC50 at 48 h [3] | IC50 [4, 10] | IC50 [4, 11] | CC50 at 48 h [5] | EC50 [6, 12] | EC50 [6, 13] | EC50 [1, 14] | EC50 [1, 15] | EC50 [2, 16] | EC50 [2, 17] | EC50 [6, 18] | EC50 [6, 19] | IC50 ([4]; Biochemical Assay IC50 Native MDH Reporter) | IC50 ([4]; log(IC50) Native MDH Reporter, log of IC50 (μM scale), with standard deviation) | EC50 [1, 20] |
| --- | --- | --- | --- | --- | --- | --- | --- | --- | --- | --- | --- | --- | --- | --- | --- | --- | --- | --- |
| O=C(Nc1ccc(Sc2nc3ccccc3s2)c(Cl)c1)c1cc(Br)cc(Br)c1 [Compound 17, N-(4-(Benzo[d]thiazol-2-ylthio)-3-chlorophenyl)-3,5-dibromobenzamide] | > 100 µM | > 100 µM | > 100 µM | > 100 µM | > 63.1 µM | > 63 µM | > 100 µM | > 100 µM | > 100 µM |  |  |  |  |  |  |  |  |  |
| O=C(Nc1cccc(Cl)c1)c1cc(Br)cc(Br)c1O [Compound 9, 3,5-Dibromo-N-(3-chlorophenyl)-2-hydroxybenzamide] |  |  |  | 18.2 µM | 25.1 µM | 27 µM | 9.12 µM |  |  | 1.1 µM | 1.1 µM | 46 µM | 45.7 µM | 78 µM | 77.6 µM |  |  |  |
| O=C(Nc1ccc(Sc2nc3ccccc3s2)c(Cl)c1)c1cccc(Br)c1 [Compound 18, N-(4-(Benzo[d]thiazol-2-ylthio)-3-chlorophenyl)-3-bromobenzamide] | > 100 µM | > 100 µM | > 100 µM | > 100 µM | > 63.1 µM | > 63 µM | 87.1 µM | > 100 µM | > 100 µM |  |  |  |  |  |  |  |  |  |
| O=C(Nc1ccccc1)c1ccccc1O [Compound 16, 2-Hydroxy-N-phenylbenzamide] |  |  |  | > 100 µM |  |  | 67.6 µM |  |  | 51 µM | 51.3 µM | > 100 µM | > 100 µM | > 100 µM | > 100 µM | > 63 µM | > 63.1 µM |  |
| COc1ccc(Br)cc1C(=O)Nc1ccc(Sc2nc3ccccc3s2)cc1 [Compound 35, N-(4-(Benzo[d]thiazol-2-ylthio)phenyl)-5-bromo-2-methoxybenzamide] | > 100 µM | > 100 µM | > 100 µM | > 100 µM | > 63.1 µM | > 63 µM | > 100 µM | > 100 µM | > 100 µM |  |  |  |  |  |  |  |  |  |
| COc1c(Br)cc(Br)cc1C(=O)Nc1cccc(Cl)c1 [Compound 37, 3,5-Dibromo-N-(3-chlorophenyl)-2-methoxybenzamide] | > 100 µM | > 100 µM | > 100 µM | > 100 µM | > 63.1 µM | > 63 µM | > 100 µM | > 100 µM | > 100 µM |  |  |  |  |  |  |  |  | > 100 µM |
| COc1ccc(Br)cc1C(=O)Nc1ccc(Sc2nc3ccccc3s2)c(Cl)c1 [Compound 31, N-(4-(Benzo[d]thiazol-2-ylthio)-3-chlorophenyl)-5-bromo-2-methoxybenzamide] | > 100 µM | > 100 µM | > 100 µM | > 100 µM | > 63.1 µM | > 63 µM | > 100 µM | > 100 µM | > 100 µM |  |  |  |  |  |  |  |  |  |
| O=C(Nc1cccc(Cl)c1)c1cccc(Br)c1 [Compound 24, 3-Bromo-N-(3-chlorophenyl)benzamide] | 67.6 µM | > 100 µM | > 100 µM | 51.3 µM | > 63.1 µM | > 63 µM | 50.1 µM | > 100 µM | > 100 µM |  |  |  |  |  |  |  |  | 68 µM |
| COc1ccccc1C(=O)Nc1ccc(Sc2nc3ccccc3s2)cc1 [Compound 36, N-(4-(Benzo[d]thiazol-2-ylthio)phenyl)-2-methoxybenzamide] | > 100 µM | > 100 µM | > 100 µM | > 100 µM | > 63.1 µM | > 63 µM | > 100 µM | > 100 µM | > 100 µM |  |  |  |  |  |  |  |  |  |
| COc1c(Br)cc(Br)cc1C(=O)Nc1ccccc1 [Compound 41, 3,5-Dibromo-2-methoxy-N-phenylbenzamide] | > 100 µM | > 100 µM | > 100 µM | > 100 µM | > 63.1 µM | > 63 µM | > 100 µM | > 100 µM | > 100 µM |  |  |  |  |  |  |  |  |  |
| O=C(Nc1cccc(Cl)c1)c1ccccc1 [Compound 25, N-(3-Chlorophenyl)benzamide] | > 100 µM | > 100 µM | > 100 µM | > 100 µM | > 63.1 µM | > 63 µM | > 100 µM | > 100 µM | > 100 µM |  |  |  |  |  |  |  |  |  |
| COc1c(Br)cccc1C(=O)Nc1cccc(Cl)c1 [Compound 38] | > 100 µM | > 100 µM | > 100 µM | > 100 µM | > 63.1 µM | > 63 µM | > 100 µM | > 100 µM | > 100 µM |  |  |  |  |  |  |  |  |  |
| COc1c(Br)cccc1C(=O)Nc1ccc(Sc2nc3ccccc3s2)c(Cl)c1 [Compound 30, N-(4-(Benzo[d]thiazol-2-ylthio)-3-chlorophenyl)-3-bromo-2-methoxybenzamide] | > 100 µM | > 100 µM | > 100 µM | > 100 µM | > 63.1 µM | > 63 µM | > 100 µM | > 100 µM | > 100 µM |  |  |  |  |  |  |  |  |  |
| O=C(Nc1ccc(Sc2nc3ccccc3s2)cc1)c1ccccc1 [Compound 22, N-(4-(Benzo[d]thiazol-2-ylthio)phenyl)benzamide] | > 100 µM | > 100 µM | > 100 µM | > 100 µM | > 63.1 µM | > 63 µM | > 100 µM | > 100 µM | > 100 µM |  |  |  |  |  |  |  |  |  |
